The conditions of data set [1]: ref not given, cited from earlier work; for emission maximum, free dye: reported value; for absorbance maximum, free dye: reported for the free dye.
Data set [2] in a line: absorbance and emission spectra. The class given is physicochemical. To be noted: for Stokes-shift: conjugate versus free IR800CW; for absorbance maximum: Tecan Infinite M-1000 PRO, 230–1000 nm; for absorbance maximum / emission maximum: step 2 nm; for emission maximum: bandwidth 5 nm.
For data set [3] the following is noted: cited from earlier work.
The nature of data set [4]: photobleaching in ambient light or in the dark. The note with it: 50 nM in PBS, n = 4. It counts as physicochemical.
Data set [5] relates to DMS-53 cells. As to the kind of experiment: confocal fluorescence microscopy, DMS-53. The class given is cell-based.
In data set [6] the test system is H1299 cells. As to the kind of experiment: confocal fluorescence microscopy, H1299. The class given is cell-based.
The subject of data set [7] is DMS-53 cells. As to the kind of experiment: semi-quantitative confocal microscopy, DMS-53 cells. It counts as cell-based. The note with it: Dmt-Tic-Lys-Cy5 50 nM.
For data set [8], the system named is H1299 cells. As to the kind of experiment: semi-quantitative confocal microscopy, H1299 cells. It counts as cell-based. To be noted: Dmt-Tic-Lys-Cy5 50 nM.
In data set [9] the test system is HCT-116 cells. As to the kind of experiment: semi-quantitative confocal microscopy, parental HCT-116 cells. The note with it: Dmt-Tic-Lys-Cy5 50 nM. It counts as cell-based.
Data set [10] has as its system HCT-116/δOR cells. As to the kind of experiment: semi-quantitative confocal microscopy, HCT-116/δOR cells. To be noted: Dmt-Tic-Lys-Cy5 50 nM. It counts as cell-based.
For data set [11], the target named is δOR (Homo sapiens, UniProt P41143). The note with it: cited from earlier work.
Chain of δOR (P41143 1-357 limits assumed): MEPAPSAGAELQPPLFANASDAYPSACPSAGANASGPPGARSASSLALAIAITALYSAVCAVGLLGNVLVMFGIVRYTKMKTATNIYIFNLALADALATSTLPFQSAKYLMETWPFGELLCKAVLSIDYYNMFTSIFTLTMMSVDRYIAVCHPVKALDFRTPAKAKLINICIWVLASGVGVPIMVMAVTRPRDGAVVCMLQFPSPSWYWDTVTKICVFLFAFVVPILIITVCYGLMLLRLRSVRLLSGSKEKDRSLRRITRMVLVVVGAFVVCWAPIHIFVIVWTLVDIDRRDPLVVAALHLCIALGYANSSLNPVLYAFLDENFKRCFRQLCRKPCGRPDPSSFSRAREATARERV
In data set [12] the test system is HCT-116/δOR tumor. To be noted: dose 4.5 nmol/kg; previous experiments; cited from earlier work.
Data set [13] has as its system HCT-116/δOR tumors. It counts as in vivo, mice. The note with it: i.v. tail vein.
For data set [14], the system named is HCT-116/δOR tumors. It counts as in vivo, mice. To be noted: 10 nmol/kg i.v., 24 hours post-injection, n = 4, p ≤ 0.01.
Data set [15] relates to DMS-53 (δOR+) tumors. The class given is in vivo, mice. To be noted: i.v. tail vein; 40, 80 and 160 nmol/kg compared.
The test system of data set [16] is DMS-53 (δOR+) tumors. As to the kind of experiment: in vivo selectivity imaging, bilateral H1299 and DMS-53 xenografts, Optix-MX3. On the set-up: species or system mice. To be noted: 40 nmol/kg i.v., 24 hours post-injection, n = 4, p ≤ 0.01.
The mark [17] stands for this setting: Dmt-Tic-Lys-Cy5 50 nM, 15 min, room temperature.
Where [18] appears, read: naloxone 5 µM final pre-incubated 15 min, Dmt-Tic-Lys-Cy5 50 nM final.

For orientation: Ki means a dissociation constant, usually derived from enzyme kinetics or from competition with a known ligand.

`CCN1/C(=C/C=C/C=C/C2=[N+](CCCCCC(=O)O)c3ccc(S(=O)(=O)O)cc3C2(C)C)C(C)(C)c2cc(S(=O)(=O)[O-])ccc21` [Cy5]: in data set [1], the “emission maximum, free dye” value is 670 nm and the “absorbance maximum, free dye” value is on record as 649 nm.

As to `CC1(C)C(/C=C/C2=C(Oc3ccc(S(=O)(=O)O)cc3)C(=C/C=C3/N(CCCCS(=O)(=O)O)c4ccc(S(=O)(=O)[O-])cc4C3(C)C)/CCC2)=[N+](CCCCCC(=O)O)c2ccc(S(=O)(=O)O)cc21` [IR800CW], in data set [2], the Stokes-shift is given as 15 nm. For the same compound, in data set [1], the “emission maximum, free dye” value is recorded as 789 nm and the “absorbance maximum, free dye” value is given as 774 nm. Also, the toxicity entry in data set [3] is reported as “non-toxic”.

With Dmt-Tic-Lys-Cy5, the absorbance maximum in data set [2] (100 µM in PBS) was 650 nm. Moreover, the emission maximum in [2] (100 µM in PBS, emission 280–850 nm) came to 676 nm. The photobleaching result in data set [4] (light versus dark, IVIS-200, Cy5 filter set) is given as “photobleaches”. In addition, the cell-surface labeling entry was “cell-surface labeling is observed” in [5] (setting [17]), “little labeling was observed” in data set [6] (setting [17]), “Cell-surface labeling was observed” in data set [7] and “Cell-surface labeling was observed” in data set [10]. Further, the labeling result in [8] and in data set [9] was “No labeling was observed” throughout. In addition, in [11], the “δOR affinity (in words)” value is given as “low nM affinity”. The Ki in [11] (read-out: binding affinity for the δOR (Ki)) is 3 nM. Besides, the “tumor uptake and retention” value in [12] is “selective uptake and retention”.

`Cc1cc(O)cc(C)c1C[C@H](N)C(=O)N1Cc2ccccc2C[C@H]1C(=O)N[C@@H](CCCCNC(=O)CCSC1CC(=O)N(CCNC(=O)CCCCCN2C(=CC=C3CCCC(C=CC4=[N+](CCCCS(=O)(=O)[O-])c5ccc(S(=O)(=O)O)cc5C4(C)C)=C3Oc3ccc(S(=O)(=O)O)cc3)C(C)(C)c3cc(S(=O)(=O)O)ccc32)C1=O)C(=O)O` (stereo partly drawn) [Dmt-Tic-IR800]: in data set [2] (100 µM in PBS), the absorbance maximum was 778 nm. The emission maximum in [2] (1 mM in PBS, emission 450–850 nm) is recorded as 832 nm. For the same compound, in data set [2], the Stokes-shift turned out to be 54 nm. Moreover, the “significance of difference in percent initial fluorescence, light versus dark” value in data set [4] (ICG filter set, except at ≥ 7 hours) is on record as “not significantly different”. Moreover, the “difference in percent of the initial fluorescence intensity, light versus dark” value in data set [4] (ICG filter set, significant at ≥ 7 hours) is 6–13%. In data set [13] (10 nmol/kg selected), the “tumor-to-background ratio, 20 versus 10 nmol/kg” value was “similar”. For the same compound, the tumor-to-background ratio result in data set [13] (20 and 10 nmol/kg versus 5 and 2.5 nmol/kg, all time points) is “greatest tumor-to-background ratio”. Moreover, the dye retention result in [13] (IVIS-200) is “retained for days”. Moreover, the “average fluorescence signal, HCT-116/δOR versus HCT-116 tumors” value in data set [14] is reported as “significantly higher average fluorescence signal”. Further, the optimal dose in [15] turned out to be 40 nmol/kg. Also, in [16], the “fold enhancement of positive tumor (DMS-53) relative to negative tumor (H1299)” value is ~ 4 fold and the “normalized intensity, DMS-53 versus H1299” value is “significantly higher normalized intensity”.

With `C=CCN1CC[C@]23c4c5ccc(O)c4O[C@H]2C(=O)CC[C@@]3(O)[C@H]1C5` [naloxone], the “effect of naloxone on cell-surface labeling” value in data set [5] (setting [18]) is on record as “blocked”; in [6] (setting [18]), “unaffected”.

These data come from PMC5524213 (Bioconjugate chemistry, 2015).
